According to patent publication US6642392B1 (priority 1997, dated 2003):
Read-outs that look alike come from different tables or passages of the source.

Legend:
Format in all cases: in vivo
[1] = test system: Eiysiphe graminis f. sp. tritici; experiment: Test A: wheat powdery mildew, preventive spray on wheat seedlings; details: for Test A disease control rating: wheat powdery mildew; for Test A disease control rating (100 = 100% disease control, 0 = no disease control): wheat seedlings sprayed to run-off, inoculated the following day, rating relative to controls, unmarked compounds (standard test rate)
Outline: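 Preventive test: seedlings inoculated with powdery mildew spores one day after run-off spraying of a suspension. Ratings after 7 days in a 20° C growth chamber express percent disease control versus controls.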

Puccinia recondita = experiment: Test B: wheat leaf rust, preventive spray on wheat seedlings; details: for Test B disease control rating: wheat leaf rust; for Test B disease control rating (100 = 100% disease control, 0 = no disease control): wheat seedlings sprayed to run-off, inoculated the following day, rating relative to controls, unmarked compounds (standard test rate)
Outline: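 Preventive test: P. recondita spores were applied one day after a run-off spray of compound suspension on wheat seedlings. Plants had 24 h at 20 °C in saturated air plus 6 days in a 20 °C growth chamber. Scoring is % disease control (100 = full) relative to controls.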

Pyricularia oryzae = details: for Test C disease control rating: rice blast; for Test C disease control rating (100 = 100% disease control, 0 = no disease control): rice seedlings sprayed to run-off, inoculated the following day, rating relative to controls, unmarked compounds (standard test rate)
Phytophthora infestans = details: for Test D disease control rating: tomato late blight; for Test D disease control rating (100 = 100% disease control, 0 = no disease control): tomato seedlings sprayed to run-off, inoculated the following day, rating relative to controls, unmarked compounds (standard test rate)
Botrytis cinerea = experiment: Test E: gray mold, preventive spray on cucumber seedlings; details: for Test E disease control rating: gray mold on cucumber; for Test E disease control rating (100 = 100% disease control, 0 = no disease control): cucumber seedlings sprayed to run-off, inoculated the following day, rating relative to controls, unmarked compounds (standard test rate)
Outline: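 Preventive spray on cucumber seedlings used a suspension (3% acetone, 250 ppm Trem 014), applied to run-off one day before inoculation with Botrytis cinerea spores. Plants were held 48 h at 20° C in saturated air, then 5 days at 20° C. Percent disease control was scored relative to untreated plants.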

[2] = 100 = 100% disease control, 0 = no control relative to controls, unmarked entries (standard test concentration)
[3] = 100 = 100% disease control, 0 = no control, unmarked entries (standard test concentration)

SMILES | Test A disease control rating (100 = 100% disease control, 0 = no disease control) [1] [%] | Test B disease control rating (100 = 100% disease control, 0 = no disease control) (Puccinia recondita) [%] | Test C disease control rating (100 = 100% disease control, 0 = no disease control) (Pyricularia oryzae) [%] | Test D disease control rating (100 = 100% disease control, 0 = no disease control) (Phytophthora infestans) [%] | Test E disease control rating (100 = 100% disease control, 0 = no disease control) (Botrytis cinerea) [%] | other results
CC(COc1ccccc1OC(F)(F)C(F)F)NC(=O)C(C#N)C(C)(C)C (mixture of isomers) [compound 201] |  |  |  |  |  | Test A disease control rating [1, 2]: 90%; Test B disease control rating (Puccinia recondita; [3]): 0%; Test C disease control rating (Pyricularia oryzae; [3]): 53%; Test D disease control rating (Phytophthora infestans; [3]): 46%; Test E disease control rating (Botrytis cinerea; [3]): 0%
CCC1(C(=O)NC(C)COc2cc(Cl)cc(Cl)c2)C(C)C1(Cl)Cl (stereo not shown) [compound 115] |  |  |  |  |  | Test A disease control rating ([1]; tested at 40 ppm): 52%; Test B disease control rating (Puccinia recondita; tested at 40 ppm): 0%; Test C disease control rating (Pyricularia oryzae; tested at 40 ppm): 32%; Test D disease control rating (Phytophthora infestans; tested at 40 ppm): 0%; Test E disease control rating (Botrytis cinerea; tested at 40 ppm): 0%
C[C@H](COc1ccc(Cl)c(F)c1)NC(=O)C(C#N)C(C)(C)C (single isomer, unassigned) [182b] |  |  |  |  |  | Test A disease control rating [1, 2]: 0%; Test B disease control rating (Puccinia recondita; [3]): 68%; Test C disease control rating (Pyricularia oryzae; [3]): 94%; Test D disease control rating (Phytophthora infestans; [3]): 0%; Test E disease control rating (Botrytis cinerea; [3]): 0%
CC(COc1ccccc1C(F)(F)F)NC(=O)C1(C)CC1(Cl)Cl (mixture of isomers) [compound 312] | 0 | 0 | 0 | 82 | 0 | 
C[C@H](COc1ccccc1)NC(=O)C(C#N)C(C)(C)C (single isomer, unassigned) [1e] |  |  |  |  |  | Test A disease control rating [1, 2]: 92%; Test B disease control rating (Puccinia recondita; [3]): 0%; Test C disease control rating (Pyricularia oryzae; [3]): 100%; Test D disease control rating (Phytophthora infestans; [3]): 80%; Test E disease control rating (Botrytis cinerea; [3]): 47%
CC(NC(=O)C(C#N)C(C)(C)C)C(Oc1ccccc1C#N)c1ccccc1 (mixture of isomers) [compound 291] | 0 | 0 | 90 | 0 | 0 | 
C[C@H](COc1cc(F)ccc1F)NC(=O)C(C#N)C(C)(C)C=CF (single isomer, unassigned) [221a] | 0 | 0 | 100 | 41 | 0 | 
CCCc1cccc(C#N)c1OCC(C)NC(=O)C(C#N)C(C)C(C)(C)C (mixture of isomers) [compound 276] | 0 | 0 | 0 | 0 | 94 | 
CC(COc1c(Cl)cccc1C#N)NC(=O)C(C#N)C(C)C(C)(C)C (mixture of isomers) [compound 281] | 56 | 0 | 53 | 0 | 0 | 
CCC1(C(=O)NC(C)COc2ccc(F)c(F)c2)C(C)C1(Cl)Cl (stereo not shown) [compound 108] |  |  |  |  |  | Test A disease control rating ([1]; tested at 40 ppm): 57%; Test B disease control rating (Puccinia recondita; tested at 40 ppm): 0%; Test C disease control rating (Pyricularia oryzae; tested at 40 ppm): 94%; Test D disease control rating (Phytophthora infestans; tested at 40 ppm): 0%; Test E disease control rating (Botrytis cinerea; tested at 40 ppm): 0%
CC(COc1ccccc1Br)NC(=O)C1(C)CC1(Cl)Cl (mixture of isomers) [compound 313] | 0 | 0 | 26 | 32 | 47 | 
